PMC3326534 (Biochemistry, 2007)
Read-outs that look alike come from different tables or passages of the source.

Columns and labels:
Format in all cases: binding
[1] = biological target: PrnB (Pseudomonas fluorescens, UniProt P95481, C21S/C60S/C175S); assay: crystal structure
[2] = biological target: T1, PrnB (Pseudomonas fluorescens, UniProt P95481, C175S/C21S/C60S); assay: spectrophotometric ligand titration
[3] = biological target: T1, PrnB; assay: spectrophotometric ligand titration; remark: listed apart in the source
[4] = biological target: T1, PrnB; assay: spectrophotometric ligand titration; remark: listed apart in the source

T1 sequence (P95481 whole entry C175S/C21S/C60S): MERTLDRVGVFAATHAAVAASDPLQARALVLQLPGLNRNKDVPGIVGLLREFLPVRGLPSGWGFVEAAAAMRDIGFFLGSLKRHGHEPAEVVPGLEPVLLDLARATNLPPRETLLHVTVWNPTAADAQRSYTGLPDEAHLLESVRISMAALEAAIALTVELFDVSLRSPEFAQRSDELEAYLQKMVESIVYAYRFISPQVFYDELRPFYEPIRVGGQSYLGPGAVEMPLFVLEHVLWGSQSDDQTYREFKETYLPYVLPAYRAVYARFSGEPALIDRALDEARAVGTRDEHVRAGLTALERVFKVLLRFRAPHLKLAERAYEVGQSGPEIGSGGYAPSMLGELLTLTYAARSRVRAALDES
Sequence of PrnB (Pseudomonas fluorescens, UniProt P95481, C21S/C60S/C175S) (P95481 whole entry C21S/C60S/C175S): as the sequence (P95481 whole entry C175S/C21S/C60S) above

With `NC(Cc1c[nH]c2c(Cl)cccc12)C(=O)O` (racemic) [7-Cl-D-tryptophan] the “crystal structure (2.0 Å)” value [1] was “In the 7-Cl-D-tryptophan complex, one of the oxygen atoms of the carboxyl group is bound to the iron”.

In the case of `N[C@H](Cc1c[nH]c2ccccc12)C(=O)O` [D-tryptophan], the Kd [2] is reported as 39 µM.

In the case of `N[C@@H](Cc1c[nH]c2c(Cl)cccc12)C(=O)O` [7-Cl-L-tryptophan], the Kd [3] is reported as 4.9 µM.

Compound `N[C@@H](Cc1c[nH]c2ccccc12)C(=O)O` [L-tryptophan] has a Kd [4] of 60 µM.
